Test results published in patent US20120283216A1, “FUNGICIDAL 2-(BICYCLIC ARYLOXY)CARBOXAMIDES” (priority 2009, published 2012).

Key:
Format in all cases: in vivo
[1] = system: Blumeria graminis f. sp. tritici; experiment: Test A: wheat powdery mildew, preventive spray on wheat seedlings, visual disease rating; conditions: preventive spray at 40 ppm, rated 8 days after inoculation
How it was run: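 After 8 days in a 20° C. growth chamber, disease was scored visually as % control versus untreated (100 = full control). Plants had received a run-off spray of 40 ppm (≈800 g/ha label rate) in acetone/water plus surfactant, with spore-dust inoculation one day later.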

Septoria tritici = experiment: Test B: wheat leaf blotch, preventive spray on wheat seedlings, visual disease rating; conditions: preventive spray at 40 ppm, rated after 48 h + 19 days
How it was run: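 Visual ratings of percent disease control relative to untreated controls were made 19 days after a 48 h saturated-atmosphere incubation at 20° C. Plants had been spore-inoculated one day after a preventive run-off spray at 40 ppm, equivalent to 800 g/ha.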

Botrytis cinerea = experiment: Test C: tomato botrytis, preventive spray on tomato seedlings, visual disease rating; conditions: preventive spray at 40 ppm, rated after 48 h + 3 days
How it was run: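 Compounds applied at 40 ppm (≈800 g/ha) in acetone/water with surfactant, sprayed to run-off on tomato seedlings. Inoculated next day with B. cinerea spores; 48 h saturated humidity at 20 °C, then 3 days at 27 °C. Visual rating as % disease control versus untreated controls.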

Structure (SMILES) | Test A disease control rating (100 = 100% disease control, 0 = no disease control relative to the controls) [1] | Test B disease control rating (100 = 100% disease control, 0 = no disease control relative to the controls) (Septoria tritici) | Test C disease control rating (100 = 100% disease control, 0 = no disease control relative to the controls) (Botrytis cinerea) | pest or weed control at 40 ppm ([1]; Blumeria graminis, 192 h, read-out: Test A disease control rating (100 = 100% disease control, 0 = no disease control relative to the controls)) | pest or weed control at 40 ppm (Septoria tritici; Zymoseptoria tritici, 504 h, read-out: Test B disease control rating (100 = 100% disease control, 0 = no disease control relative to the controls)) | pest or weed control at 40 ppm (Botrytis cinerea; Botrytis cinerea, 120 h, read-out: Test C disease control rating (100 = 100% disease control, 0 = no disease control relative to the controls))
CCOC(Oc1ccc2ccc(Br)cc2c1)C(=O)NC(C)(C)COC (stereo not drawn) [Compound 118] | 0% | 97% | 97% |  |  | 
CCOc1ccc2ccc(OC(OCC)C(=O)NC(C)(C)COC)cc2c1 (stereo not drawn) [Compound 120] | 90% | 99% | 98% |  |  | 
CCOc1ccc2ccc(OC(OCC)C(=O)NC(C)(C)C)cc2c1 (stereo not drawn) [Compound 121] |  |  |  | 29% | 100% | 99%
C#CC(C)(C)NC(=O)C(OCC)Oc1ccc2ccc(OCC)cc2c1 (stereo not drawn) [Compound 122] | 0% | 100% | 98% |  |  | 
CCOc1ccc2ccc(OC(OCC)C(=O)NC(C)(C)C#N)cc2c1 (stereo not drawn) [Compound 123] | 82% | 100% | 98% |  |  | 
CCCOc1ccc2ccc(OC(OC)C(=O)NC(C)(C)COC)cc2c1 (stereo not drawn) [Compound 124] | 98% | 100% | 99% |  |  | 
CCCOc1ccc2ccc(OC(OC)C(=O)NC(C)(C)C)cc2c1 (stereo not drawn) [Compound 125] | 92% | 100% | 98% |  |  | 
C#CC(C)(C)NC(=O)C(OC)Oc1ccc2ccc(OCCC)cc2c1 (stereo not drawn) [Compound 126] | 72% | 99% | 99% |  |  | 
CCCOc1ccc2ccc(OC(CC)C(=O)NC(C)(C)COC)cc2c1 (stereo not drawn) [Compound 127] | 94% | 99% | 99% |  |  | 
CCCOc1ccc2ccc(OC(CC)C(=O)NC(C)(C)C)cc2c1 (stereo not drawn) [Compound 128] | 98% | 100% | 99% |  |  | 
C#CC(C)(C)NC(=O)C(CC)Oc1ccc2ccc(OCCC)cc2c1 (stereo not drawn) [Compound 129] | 96% | 99% | 99% |  |  | 
C#CCOc1ccc2ccc(OC(OC)C(=O)NC(C)(C)COC)cc2c1 (stereo not drawn) [Compound 130] | 21% | 98% | 100% |  |  | 
C#CCOc1ccc2ccc(OC(OC)C(=O)NC(C)(C)C)cc2c1 (stereo not drawn) [Compound 131] | 68% | 100% | 100% |  |  | 
C#CCOc1ccc2ccc(OC(OC)C(=O)NC(C)(C)C#C)cc2c1 (stereo not drawn) [Compound 132] | 13% | 99% | 100% |  |  | 
C#CCOc1ccc2ccc(OC(CC)C(=O)NC(C)(C)COC)cc2c1 (stereo not drawn) [Compound 133] | 74% | 99% | 100% |  |  | 
